ChEMBL document CHEMBL4610060, “Orally bioavailable amine-linked macrocyclic inhibitors of factor XIa” (Bioorg Med Chem Lett, 2020)

How the values were obtained:
[1] = Permeability across basolateral to apical side in human Caco2 cells; format: ADME, cell-based; conditions: Caco-2, read-out: permeability
[2] = Permeability across apical to basolateral side in human Caco2 cells; format: ADME, cell-based; conditions: Caco-2, read-out: permeability
Plasma = test: Anticoagulant activity in human plasma assessed as EC1.5 of activated partial thromboplastin time by coagulometric analysis; format: functional
[3] = Metabolic stability in human liver microsomes assessed as half life; format: ADME, Microsome
[4] = Clearance in Sprague-Dawley rat at 1.13 mg/kg, iv or 2.27 mg/kg, po measured upto 24 hrs by LC-MS/MS analysis; format: ADME, organism-based; conditions: in vivo
[5] = Half life in Sprague-Dawley rat at 1.13 mg/kg, iv or 2.27 mg/kg, po measured upto 24 hrs by LC-MS/MS analysis; format: ADME, organism-based; conditions: in vivo
[6] = Volume of distribution at steady state in Sprague-Dawley rat at 1.13 mg/kg, iv or 2.27 mg/kg, po measured upto 24 hrs by LC-MS/MS analysis; format: ADME, organism-based; conditions: in vivo, read-out: Vdss
[7] = Oral bioavailability in Sprague-Dawley rat at 2.27 mg/kg measured upto 24 hrs by LC-MS/MS analysis; format: ADME, organism-based; conditions: in vivo
[8] = AUC in Sprague-Dawley rat at 2.27 mg/kg, po measured upto 24 hrs by LC-MS/MS analysis; format: ADME, organism-based; design: time < 24 hr, dose 2.27 mg/kg, route oral; conditions: in vivo
[9] = Metabolic stability in rat liver microsomes assessed as half life; format: ADME, Microsome
Coagulation factor XI = Coagulation factor XI (Homo sapiens, UniProt P03951); test: Inhibition of recombinant human activated coagulation factor XI using pyro-Glu-Pro-Arg-pNA as substrate by spectrophotometry
[10] = Clearance in Sprague-Dawley rat at 0.50 mg/kg, iv or 1.0 mg/kg, po measured upto 24 hrs by LC-MS/MS analysis; format: ADME, organism-based; conditions: in vivo, 0.5 mg/kg
[11] = Half life in Sprague-Dawley rat at 0.50 mg/kg, iv or 1.0 mg/kg, po measured upto 24 hrs by LC-MS/MS analysis; format: ADME, organism-based; conditions: in vivo
[12] = Volume of distribution at steady state in Sprague-Dawley rat at 0.50 mg/kg, iv or 1.0 mg/kg, po measured upto 24 hrs by LC-MS/MS analysis; format: ADME, organism-based; conditions: in vivo, 0.5 mg/kg, read-out: Vdss
[13] = Oral bioavailability in Sprague-Dawley rat at 1.0 mg/kg measured upto 24 hrs by LC-MS/MS analysis; format: ADME, organism-based; conditions: in vivo
[14] = AUC in Sprague-Dawley rat at 1.0 mg/kg, po measured upto 24 hrs by LC-MS/MS analysis; format: ADME, organism-based; design: dose 1 mg/kg, time < 24 hr, route oral; conditions: in vivo
[15] = Protein binding in rat assessed as unbound fraction; format: ADME

Chain of Coagulation factor XI (P03951 19-387 limits assumed): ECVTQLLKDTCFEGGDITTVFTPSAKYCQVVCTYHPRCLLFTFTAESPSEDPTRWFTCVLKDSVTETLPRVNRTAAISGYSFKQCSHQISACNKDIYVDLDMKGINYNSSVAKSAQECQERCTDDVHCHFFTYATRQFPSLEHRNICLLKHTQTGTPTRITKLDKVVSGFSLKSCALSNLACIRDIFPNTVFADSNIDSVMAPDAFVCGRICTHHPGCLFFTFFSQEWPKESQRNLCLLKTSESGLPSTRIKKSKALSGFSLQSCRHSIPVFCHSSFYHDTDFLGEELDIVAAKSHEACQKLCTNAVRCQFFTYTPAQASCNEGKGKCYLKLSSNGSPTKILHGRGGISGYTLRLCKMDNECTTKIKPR
Chain of Coagulation factor XI (P03951 388-625 limits assumed): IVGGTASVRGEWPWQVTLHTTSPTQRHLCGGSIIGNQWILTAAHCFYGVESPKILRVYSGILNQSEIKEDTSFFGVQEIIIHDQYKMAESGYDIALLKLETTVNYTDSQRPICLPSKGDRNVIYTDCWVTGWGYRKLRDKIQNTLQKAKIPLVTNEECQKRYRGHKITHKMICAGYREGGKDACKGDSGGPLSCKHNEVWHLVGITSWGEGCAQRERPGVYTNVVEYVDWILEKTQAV

Row | SMILES | half-life [3] | Ki (Coagulation factor XI) | EC1.5 (Plasma) | other results
1 | COC(=O)c1ccc2c(c1)-c1c[nH]c(n1)[C@@H](NC(=O)/C=C/c1cc(Cl)ccc1-n1cnnn1)C/C=C/CCC(=O)N2 | 6 min | 245 nM | – | –
2 | COC(=O)Nc1ccc2c(c1)NC(=O)CC/C=C/C[C@H](NC(=O)/C=C/c1cc(Cl)ccc1-n1cnnn1)c1nc-2c[nH]1 | – | – | 0.27 µM | Papp A→B [2]: < 1.5 ×10⁻⁶ cm/s
3 | O=C(/C=C/c1cc(Cl)ccc1-n1cnnn1)N[C@H]1C/C=C/CCC(=O)Nc2ccccc2-c2c[nH]c1n2 | 3 min | 5.1 nM | 2.9 µM | –
4 | O=C(/C=C/c1cc(Cl)ccc1-n1cnnn1)N[C@H]1C/C=C/CCC(=O)Nc2ccc(F)cc2-c2c[nH]c1n2 | 2 min | 6 nM | 2.5 µM | –
5 | O=C(/C=C/c1cc(Cl)ccc1-n1cnnn1)N[C@H]1C/C=C/CCC(=O)Nc2ccc(C(=O)O)cc2-c2c[nH]c1n2 | 94 min | 3.6 nM | 1.7 µM | –

The next lines start with results.

Row | half-life [3] | Ki (Coagulation factor XI) | SMILES | EC1.5 (Plasma) | other results
6 | 90 min | – | COC(=O)Nc1ccc2c(c1)NC(=O)CCCC[C@H](NC(=O)/C=C/c1cc(Cl)ccc1-n1cnnn1)c1nc-2c[nH]1 | 0.3 µM | Papp B→A [1]: 6.7 ×10⁻⁶ cm/s; Papp A→B [2]: < 1.5 ×10⁻⁶ cm/s; clearance [4]: 10 mL/min/kg; half-life [5]: 60 min; Vd [6]: 0.3 L/kg; bioavailability [7]: < 1%; AUC at 24 h [8]: 0.024 µM·h; half-life [9]: 76 min
7 | 6 min | 16 nM | COC(=O)Nc1ccc2c(c1)NCCCCC[C@H](NC(=O)/C=C/c1cc(Cl)ccc1-n1cnnn1)c1nc-2c[nH]1 | 6.2 µM | –
8 | 7 min | 0.22 nM | CCOC(=O)[C@H]1CCCC[C@H](NC(=O)/C=C/c2cc(Cl)ccc2-n2cnnn2)c2nc(c[nH]2)-c2ccc(NC(=O)OC)cc2N1 | 0.86 µM | Papp B→A [1]: 13.3 ×10⁻⁶ cm/s; Papp A→B [2]: < 1.5 ×10⁻⁶ cm/s; clearance [10]: 2.8 mL/min/kg; half-life [11]: 90 min; Vd [12]: 0.2 L/kg; bioavailability [13]: 7%; AUC at 24 h [14]: 0.478 µM·h; fraction unbound [15]: < 0.002; half-life [9]: 34 min
9 | 10 min | 0.61 nM | COC(=O)Nc1ccc2c(c1)N[C@@H](CO)CCCC[C@H](NC(=O)/C=C/c1cc(Cl)ccc1-n1cnnn1)c1nc-2c[nH]1 | 0.54 µM | –
10 | 14 min | 0.31 nM | COC(=O)Nc1ccc2c(c1)N[C@@H](C(=O)N(C)C)CCCC[C@H](NC(=O)/C=C/c1cc(Cl)ccc1-n1cnnn1)c1nc-2c[nH]1 | 0.36 µM | –
11 | 25 min | 1.3 nM | COC(=O)Nc1ccc2c(c1)N[C@@H](C(F)F)CCCC[C@H](NC(=O)/C=C/c1cc(Cl)ccc1-n1cnnn1)c1nc-2c[nH]1 | 2 µM | –
12 | – | 370 nM | COC(=O)Nc1ccc2c(c1)N[C@H](C(F)(F)F)CCCC[C@H](NC(=O)/C=C/c1cc(Cl)ccc1-n1cnnn1)c1nc-2c[nH]1 | – | –
